Source: patent publication US8372409B2, “Dendritic cell binding proteins and uses thereof” (University of Florida Research Foundation, Inc., priority 2003, dated 2013)

Columns and labels:
[1] = tested on: CD11c+I-A+ DC derived from mouse bone marrow; test: FACS binding of biotinylated DC-peptides to mouse bone marrow derived DC; conditions: FACS (FIG. 1F)
Protocol: (§1) Peripheral blood mononuclear cells (PBMCs) were isolated from blood of healthy or HCV^+ individuals by Ficoll gradient centrifugation. HCV RNA was detected in the blood of HCV-infected patients by RT-PCR. PBMCs (10^7/well) were seeded in 6-well plates for 2 hrs at 37° C. Subsequently, non-adherent cells were removed by several washes using PBS plus 2% fetal calf serum (FCS) and frozen for autologous MLR experiments. Adherent monocytes were cultured with GM-CSF (100 ng/ml) and IL-4 (10 ng/ml) in complete RPMI for 6 days (6). CD1a^+DR^bright DC were phenotyped by FACS before use. Rhesus macaque or chimpanzees DC were prepared in a parallel fashion by using Hgm-CSF (100 ng/ml) and Hil-4 (50 ng/ml) for six days (15). Mouse DC were prepared from bone marrow of BALB/c mice as described (16). On day six, CD11c^+I-A^+ DC were harvested, phenotyped and used for DC-peptide staining.
(§2) MDC (5×10^5) were incubated with biotinylated peptides (10 μg/ml each) for 1 hr at 4° C. Subsequently, cells were washed, incubated with SA-PE (1:100) for 1 hr, fixed with 0.1% paraformaldehyde and analyzed on a FACSCalibur™ using standard CellQuest software (Becton Dickinson). T cells were analyzed as we described (19). At least 10^4 gated events/condition were acquired for all analyses.
(§3) To test peptide binding specificity, biotinylated peptides #3, #12 and #18 were incubated with CD1a^+DR^bright CD11^bright monocyte-derived human DC, and analyzed by FACS.

[2] = tested on: monocyte-derived DC from rhesus macaque; test: FACS binding of biotinylated DC-peptides to rhesus macaque DC; conditions: FACS (FIG. 1E)
Protocol: as §1, §2, §3

[3] = tested on: monocyte-derived DC from chimpanzee; test: FACS binding of biotinylated DC-peptides to chimpanzee DC
Protocol: as §1, §2, §3

[4] = tested on: CD1a+DRbright CD11bright monocyte-derived human DC; test: FACS binding of biotinylated DC-peptides to human monocyte-derived DC; conditions: for binding to monocyte-derived human DC: biotinylated peptides, FACS and confocal microscopy (FIG. 1A, 1B)
Protocol: as §1, §2, §3
The cognate ligands for these peptides are unknown. Thus, we next tested whether these peptides bound distinct epitopes. DC presaturated with non-biotinylated peptide no longer bound the corresponding biotinylated peptide (FIG. 2A). […] Thus, the three DC-binding peptides bound distinct, saturable DC surface epitopes.
Biotinylated peptide #3 bound immature DC within 1 hr at 4° C. (FIG. 2D). Staining was decreased over the following 20 hrs at 37° C. (FIG. 2D) consistent with antigen uptake by Dcs (15, 22). […] Peptides bound immature (upper panel) and mature MDC (lower panel) comparably (FIG. 2E), although LPS-mediated maturation appeared to increase peptide binding slightly by inducing a new, minor population of high peptide-binding DC.

Sequence	binding to CD11c+I-A+ DC derived from mouse bone marrow [1]	binding to monocyte-derived DC from rhesus macaque [2]	binding to monocyte-derived DC from chimpanzee [3]	binding to monocyte-derived human DC [4]	binding of 12-mer peptide to DC ([4]; selected from the same panning as negative control)	staining of DC over the following 20 hrs ([4]; 37° C., consistent with antigen uptake (FIG. 2D))	DC viability during peptide incubation ([4]; 20 hrs at 37° C.)	time to binding of immature DC ([4]; biotinylated peptide, 4° C. (FIG. 2D))
AYYKTASLAPAE (PEPTIDE peptide specific to myeloid dendritic cells) [compound 12]	did not	specifically bound	specifically bound	bound to DC				
EPIHPETTFTNN [control peptide, reference compound]					did not bind to DC			
FYPSYHSTPQRP [peptide #3]	bound	specifically bound	specifically bound	bound to DC		decreased	remained viable	≤ 1 h
SLSLLTMPGNAS (PEPTIDE peptide specific to myeloid dendritic cells) [compound 18]	did not	specifically bound	specifically bound	bound to DC				
